From paper PMC6021367, “Regulated intratumoral expression of IL-12 using a RheoSwitch Therapeutic System® (RTS®) gene switch as gene therapy for the treatment of glioma” (Cancer Gene Therapy, 2018) come the findings set out here.

One series deals with GL-261 glioma. The experiment in a line: Survival in syngeneic mouse GL-261 orthotopic glioma model. The note with it: temozolomide 300 mg/m^2 qdx5, anti-PD-1 15 mg/m^2 q4dx5. Type of series: in vivo, C57BL/6 mice. The procedure:
At 5 days prior to treatment initiation, female C57BL/6 (C57BL/6NHsd) mice 6–7 weeks old (Envigo; Indianapolis, IN) were inoculated intracranially with 3 µL of GL-261 murine glioblastoma tumor cells at 1 × 10^5 cells/mouse. Implant coordinates were 1 mm anterior and 2 mm lateral to the bregma, at a depth of 3 mm. Buprenorphine (Reckitt Benckiser Healthcare; UK) was administered to the mice approximately 30 min prior to surgery. After 5 days, mice were randomized into one of the treatment groups. For those mice administered Ad-RTS-mIL-12, the vector was administered through the same bur hole at the coordinates above in a constant volume of 3–5 μL. Veledimex was administered via oral gavage once daily for 14 consecutive days.
(§1) All values are expressed as the mean ± standard error of the mean. Statistical analysis was performed using a one-way analysis of variance with Dunnets post hoc test to compare differences between the groups versus control. Increased survival fractions were studied using Kaplan–Meier survival plot followed with a log-rank and Gehan–Wilcoxon tests to assess the significance of the differences. All statistical analyses were performed using GraphPrism 5 (GraphPad Software, Inc., CA, USA). Differences between groups were considered significant when P < 0.05. Pharmacokinetics and tissue levels of veledimex was determined using non-compartmental analysis module of the pharmacokinetic software Phoenix 64 WinNonlin.
In this model, each C57BL/6 mouse received 1 × 10^5 GL-261 glioma cells via intracranial injection ~2 mm distal to the intersection of the coronal and sagittal suture. On day 5, the animals were randomly assigned to one of the treatment groups. Animals were monitored for survival.
1 × 10^5 GL-261 glioma cells were administered into the brain. Separate groups of 12 C57BL/6 mice each were randomly assigned to one of the treatment groups. On day 1 animals were administered 1 × 10^5 GL-261 glioma cells intracranially. On day 5, Ad-RTS-mIL-12 at 5 × 10^9 vp+veledimex PO at 1–30 mg/m^2/day PO was administered for 14 consecutive days and the time to disease progression and death was studied. […] All values are expressed as the mean for >12 animals per group.

A short description of series [1]: Plasma, CSF and brain pharmacokinetics of veledimex in mouse. In kind it is in vivo, C57BL/6 mice. The procedure: (§2) Brain tumor, plasma and cerebrospinal fluid (CSF) samples were analyzed for veledimex using liquid chromatography/tandem mass spectrometry method. Brain tumor samples were homogenized in homogenization solution (10:90/v:v/acetonitrile:0.1% Tween 80 in water) with ratio of 1 g to 9 mL and proteins precipitated. Veledimex concentrations were calculated with a Quadratic 1/x concentration weighting linear regression over concentration ranges of 0.0500 to 50 ng/mL using deuterated (D3) veledimex as an internal standard.
as §1
Veledimex was administered to separate groups of C57BL/6 mice at a single dose via oral gavage (PO) at 225 mg/m^2. Terminal blood and CSF and brain samples were collected at 1, 2, 4, 6, 24 and 48 h post dose.

The nature of series [2]: Plasma and CSF pharmacokinetics of veledimex in cynomolgus monkey. Type of series: in vivo. The note with it: cynomolgus monkeys. The procedure: as §2, §1
A single oral dose of veledimex at 120 mg was administered to six cynomolgus monkeys (3/gender) and plasma and CSF levels were assessed through 48 h post treatment. Since no gender-related differences were observed, the data from male and female animals were pooled.

Series [3] in a line: Brain veledimex level in in vivo mechanistic study (increasing vector dose, fixed veledimex dose). More on the design: species or system C57BL/6 mice. The settings on record: mean ± SEM. The procedure: as §2
In this study mice were administered Ad-RTS-mIL-12 1 × 10^8 to 5 × 10^9 vp intracranial at the coordinates stated above with veledimex administered gavage at a fixed dose of 100 mg/m^2/day PO, and brain veledimex, viral copy number and the ability to turn on the switch to elicit local production of IL-12 mRNA and IL-12 protein expressions were assessed. […] The 5 × 10^9 vp dose was chosen for all subsequent studies.

Setting [4] is: C57BL/6 mice, single oral dose 225 mg/m^2, CSF.
Setting [5] is: C57BL/6 mice, single oral dose 225 mg/m^2, brain.

In the series on GL-261 glioma (bevacizumab 30 mg/m^2 biwk ×3), `Cn1nnc2c(C(N)=O)ncn2c1=O` [temozolomide] yielded a median survival of 33 days. In addition, in the series on GL-261 glioma (bevacizumab 30 mg/m^2 biwk ×3, day 85), the “animals surviving to terminal killing” value was 14%. For the same molecule, the “tumor at terminal killing” value with GL-261 glioma is reported as “all mice having tumor present”.
As for `CCC[C@@H](N(NC(=O)c1cccc(OC)c1CC)C(=O)c1cc(C)cc(C)c1)C(C)(C)C` [veledimex], the “Cmax and AUC0-t ratio between CSF and plasma” value in series [1] (C57BL/6 mice, single oral dose 225 mg/m^2) was 0.34%. Further, in series [1] (setting [4]), the “CSF AUC0-t” value is 466 ng·h/mL and the “CSF Cmax” value is given as 14 ng/mL. Moreover, in series [1] (setting [5]), the “AUC0-t in the brain” value is 25325 ng·h/mL and the “Cmax in the brain” value is recorded as 1794 ng/mL. This molecule also gave a Cmax in plasma in series [1] (C57BL/6 mice, single oral dose 225 mg/m^2, plasma) of 4153 ng/mL. In addition, the “Blood–brain barrier crossing” value in series [1] (mice, orally administered) is reported as “crosses the blood–brain barrier”. Moreover, the “Blood–brain barrier crossing” value in series [2] (orally administered) is “crosses the blood–brain barrier”. Besides, in series [2] (single oral dose 120 mg), the “AUC0-t ratio between CSF and plasma” value stood at 0.7 ± 0.2; the veledimex brain uptake is recorded as ~ 1%. In addition, in series [2] (single oral dose 120 mg, CSF), the “AUC0-t in CSF” value was 42.5 ± 17.4 ng·h/mL and the “Cmax in CSF” value is given as 2.07 ± 0.91 ng/mL. Besides, the AUC0-t in plasma in series [2] (single oral dose 120 mg, plasma) was 5887 ± 2203 ng·h/mL. In series [2] (single oral dose 120 mg, plasma, males and females pooled), this molecule had a Cmax in plasma of 327 ± 142 ng/mL. The “mean plasma Tmax” value in series [2] (single oral dose 120 mg, post dose) is given as ~ 4 h. Besides, the “Brain veledimex Cmax” value in series [3] (veledimex 100 mg/m^2/day PO + Ad-RTS-mIL-12 1 × 10^8 vp intracranial) is 515 ± 53 ng/g. Besides, in series [3] (veledimex 100 mg/m^2/day PO + Ad-RTS-mIL-12 1 × 10^9 vp intracranial), the “Brain veledimex Cmax” value is on record as 311 ± 99 ng/g. In series [3] (veledimex 100 mg/m^2/day PO + Ad-RTS-mIL-12 5 × 10^9 vp intracranial), the “Brain veledimex Cmax” value is recorded as 378 ± 68 ng/g.
Take Bevacizumab: the median survival in the series with GL-261 glioma (bevacizumab 30 mg/m^2 biwk ×3) is on record as 20 days.
